Source: patent US9187467B2, “2-phenyl benzothiazole linked imidazole compounds as potential anticancer agents and process for the preparation thereof” (Council of Scientific and Industrial Research, priority 2012, dated 2015)
Where two headings read alike, the source gives them in different places.

How the values were obtained:
Format in all cases: cell-based, human
K-562 = assay: SRB anticancer assay, leukemia; details: Homo sapiens, K562; K-562, 48 h
MALME-3M = assay: SRB anticancer assay, melanoma; details: Homo sapiens, Malme-3M, 48 h
SW-620 = assay: SRB anticancer assay, colon; details: Homo sapiens, SW-620, 48 h
Colon cancer cell lines = assay: SRB anticancer assay, panel result
Procedure: (§1) The compounds were evaluated for anticancer activity against sixty human cancer cells derived from nine cancer types (leukemia cell line, non-small-cell lung cell line, colon cell line, CNS cell line, melanoma cell line, ovarian cell line, prostate cell line, renal cancer cell line and breast cancer cell line) as shown in Table 1. For each compound, dose response curves for each cell line were measured at a minimum of five concentrations at 10 fold dilutions. A protocol of 48 h continuous drug exposure was used and a sulforhodamine B (SRB) protein assay was used to estimate cell viability or growth.

Breast cancer cell lines = assay: SRB anticancer assay, panel result
Procedure: as §1

[1] = system: Non-small cell lung cancer cell lines; assay: SRB anticancer assay, panel result
Procedure: as §1

[2] = system: Ovarian cancer cell lines; assay: SRB anticancer assay, panel result
Procedure: as §1

[3] = system: Leukemia cancer cell lines; assay: SRB anticancer assay, panel result
Procedure: as §1

CNS cancer cell lines = assay: SRB anticancer assay, panel result
Procedure: as §1

[4] = system: Prostate cancer cell lines; assay: SRB anticancer assay, panel result
Procedure: as §1

[5] = system: Melanoma cancer cell lines; assay: SRB anticancer assay, panel result
Procedure: as §1

Renal cancer cell lines = assay: SRB anticancer assay, panel result
Procedure: as §1

SNB-19 = assay: SRB anticancer assay, CNS; details: Homo sapiens, SNB-19, 48 h
RXF 393 = assay: SRB anticancer assay, renal; details: Homo sapiens, RXF 393, 48 h
HCT-116 = assay: SRB anticancer assay, colon; details: Homo sapiens, HCT-116, 48 h
UO-31 = assay: SRB anticancer assay, renal; details: Homo sapiens, UO-31, 48 h
786-0 = assay: SRB anticancer assay, renal; details: Homo sapiens, 786-0, 48 h
BT-549 = assay: SRB anticancer assay, breast; details: Homo sapiens, BT-549, 48 h
DU-145 = assay: SRB anticancer assay, prostate; details: Homo sapiens, DU-145, 48 h
MOLT-4 = assay: SRB anticancer assay, leukemia; details: Homo sapiens, MOLT-4, 48 h
HL-60 (TB) = assay: SRB anticancer assay, leukemia; details: Homo sapiens, HL-60, 48 h
U251 = assay: SRB anticancer assay, CNS; details: Homo sapiens, U-251; U251, 48 h
MDA-MB-231/ATCC = assay: SRB anticancer assay, breast; details: Homo sapiens, MDA-MB-231, 48 h, MDA-MB-231/ATCC (row head MDA-MB-), 48 h; read-out: GI50
OVCAR-5 = assay: SRB anticancer assay, ovarian; details: Homo sapiens, OVCAR-5, 48 h
SNB-75 = assay: SRB anticancer assay, CNS; details: Homo sapiens, SNB-75, 48 h
SK-MEL-2 = assay: SRB anticancer assay, melanoma; details: Homo sapiens, SK-MEL-2, 48 h

COc1cc(OC)c2sc(-c3ccc(-n4cncc4-c4cc(OC)c(OC)c(OC)c4)cc3)nc2c1 [Compound 6f, 5,7-Dimethoxy-2-(4-(5-(3,4,5-trimethoxyphenyl)-1H-imidazol-1-yl)phenyl)benzo[d]thiazole]
GI50 (K-562): 3.83 µM
GI50 (MALME-3M): 3.73 µM
GI50 (SW-620): 5.96 µM
mean graph midpoint value (MG_MID) of log10 TGI (Colon cancer cell lines; Colon panel, total inhibition of net cell growth): >−4.0
LC50 (Colon cancer cell lines; Homo sapiens, Colon panel, 50% net cell death, read-out: mean graph midpoint value (MG_MID) of Log10 LC50 (converted)): > 100 µM
GI50 (Colon cancer cell lines; Homo sapiens, Colon panel, read-out: mean graph midpoint value (MG_MID) of Log10 GI50 (converted)): 7.41 µM
GI50 (Colon cancer cell lines; Homo sapiens, seven colon cancer cell lines, exposure at least 48 h, read-out: GI50, range over the panel): 3.92 to 5.96 µM
mean graph midpoint value (MG_MID) of log10 TGI (Breast cancer cell lines; Breast panel, total inhibition of net cell growth): >−4.0
CC50 (Breast cancer cell lines; Homo sapiens, Breast panel, 50% net cell death, read-out: mean graph midpoint value (MG_MID) of Log10 LC50 (converted)): > 100 µM
GI50 (Breast cancer cell lines; Homo sapiens, Breast panel, read-out: mean graph midpoint value (MG_MID) of Log10 GI50 (converted)): 3.8 µM
GI50 (Breast cancer cell lines; Homo sapiens, six breast cancer cell lines, exposure at least 48 h, read-out: GI50, range over the panel): 3.27 to 5.23 µM
LC50 ([1]; Homo sapiens, Non-small cell lung panel, 50% net cell death, read-out: mean graph midpoint value (MG_MID) of Log10 LC50 (converted)): > 100 µM
GI50 ([1]; Homo sapiens, Non-small cell lung panel, read-out: mean graph midpoint value (MG_MID) of Log10 GI50 (converted)): 11.2 µM
GI50 ([1]; Homo sapiens, nine Non-small cell lung cancer cell lines, exposure at least 48 h, read-out: GI50, range over the panel): 3.27 to 75.9 µM
mean graph midpoint value (MG_MID) of log10 TGI ([1]; Non-small cell lung panel, total inhibition of net cell growth): >−4.0
LC50 ([2]; Homo sapiens, Ovarian panel, 50% net cell death, read-out: mean graph midpoint value (MG_MID) of Log10 LC50 (converted)): > 100 µM
GI50 ([2]; Homo sapiens, Ovarian panel, read-out: mean graph midpoint value (MG_MID) of Log10 GI50 (converted)): 16.6 µM
GI50 ([2]; Homo sapiens, seven ovarian cancer cell lines, exposure at least 48 h, read-out: GI50, range over the panel): 3.25 to 5.87 µM
mean graph midpoint value (MG_MID) of log10 TGI ([2]; Ovarian panel, total inhibition of net cell growth): >−4.0
LC50 ([3]; Homo sapiens, Leukemia panel, 50% net cell death, read-out: mean graph midpoint value (MG_MID) of Log10 LC50 (converted)): > 100 µM
GI50 ([3]; Homo sapiens, Leukemia panel, read-out: mean graph midpoint value (MG_MID) of Log10 GI50 (converted)): 3.89 µM
GI50 ([3]; Homo sapiens, six leukemia cancer cell lines, exposure at least 48 h, read-out: GI50, range over the panel): 3.24 to 5.39 µM
mean graph midpoint value (MG_MID) of log10 TGI ([3]; Leukemia panel, total inhibition of net cell growth): >−4.0
mean graph midpoint value (MG_MID) of log10 TGI (CNS cancer cell lines; CNS panel, total inhibition of net cell growth): >−4.0
CC50 (CNS cancer cell lines; Homo sapiens, CNS panel, 50% net cell death, read-out: mean graph midpoint value (MG_MID) of Log10 LC50 (converted)): > 100 µM
GI50 (CNS cancer cell lines; Homo sapiens, CNS panel, read-out: mean graph midpoint value (MG_MID) of Log10 GI50 (converted)): 15.8 µM
GI50 (CNS cancer cell lines; Homo sapiens, six CNS cancer cell lines, exposure at least 48 h, read-out: GI50, range over the panel): 4.15 to 8.59 µM
LC50 ([4]; Homo sapiens, Prostate panel, 50% net cell death, read-out: mean graph midpoint value (MG_MID) of Log10 LC50 (converted)): > 100 µM
GI50 ([4]; Homo sapiens, Prostate panel, read-out: mean graph midpoint value (MG_MID) of Log10 GI50 (converted)): 16.2 µM
GI50 ([4]; Homo sapiens, two prostate cancer cell lines (PC-3, DU-145), exposure at least 48 h, read-out: GI50, range over the panel): 2.54 µM
mean graph midpoint value (MG_MID) of log10 TGI ([4]; Prostate panel, total inhibition of net cell growth): >−4.0
LC50 ([5]; Homo sapiens, Melanoma panel, 50% net cell death, read-out: mean graph midpoint value (MG_MID) of Log10 LC50 (converted)): > 100 µM
GI50 ([5]; Homo sapiens, Melanoma panel, read-out: mean graph midpoint value (MG_MID) of Log10 GI50 (converted)): 6.61 µM
GI50 ([5]; Homo sapiens, nine melanoma cancer cell lines, exposure at least 48 h, read-out: GI50, range over the panel): 2.46 to 7.91 µM
mean graph midpoint value (MG_MID) of log10 TGI ([5]; Melanoma panel, total inhibition of net cell growth): >−4.0
CC50 (Renal cancer cell lines; Homo sapiens, Renal panel, 50% net cell death, read-out: mean graph midpoint value (MG_MID) of Log10 LC50 (converted)): > 100 µM
GI50 (Renal cancer cell lines; Homo sapiens, Renal panel, read-out: mean graph midpoint value (MG_MID) of Log10 GI50 (converted)): 6.61 µM
GI50 (Renal cancer cell lines; Homo sapiens, eight renal cancer cell lines, exposure at least 48 h, read-out: GI50, range over the panel): 1.83 to 9.4 µM
mean graph midpoint value (MG_MID) of log10 TGI (Renal cancer cell lines; Renal panel, total inhibition of net cell growth): >−4.0
GI50 (SNB-19): > 100 µM
GI50 (RXF 393): 2.8 µM
GI50 (HCT-116): 3.92 µM
GI50 (UO-31): 2.27 µM
GI50 (786-0): 7.38 µM
GI50 (BT-549): 3.35 µM
GI50 (DU-145): > 100 µM
GI50 (MOLT-4): 4.24 µM
GI50 (HL-60 (TB)): 3.3 µM
GI50 (U251): 4.15 µM
GI50 (MDA-MB-231/ATCC): 3.51 µM
GI50 (OVCAR-5): > 100 µM
GI50 (SNB-75): 6.47 µM
GI50 (SK-MEL-2): 6.09 µM
